Data published in patent US20090247519A1, “AMINO-ETHYL-AMINO-ARYL (AEAA) COMPOUNDS AND THEIR USE” (priority 2006, published 2009).
pIC50: −log10 of the molar value.

What was measured:
PANC-1 cells [1] = experiment: Neurotensin Proliferation Assay (BrdU incorporation, FACS); format: cell-based, human; settings: 5 μM compound, 50 nM neurotensin
Experimental: Neurotensin Proliferation Assay
BrdU incorporation into PANC-1 cells was used to measure DNA synthesis and thus the level of cell proliferation. Cells were seeded in 10 cm^2 cell culture dishes in (1×10^6 cells/well in E4+10% FCS). After serum starvation (24 hours), cells were treated with an amino-ethyl-amino-aryl (AEAA) compound for 1 hour before addition of neurotensin (50 nM final concentration). Cells were then incubated for a further 23 hours before addition of BrdU (10 μM) for the final 1 hour. Samples were fixed using 70% ethanol and labelled with an anti-BrdU antibody (Becton Dickinson Cat No. 347580, Lot No. 13467) followed by a rabbit polyclonal anti-mouse-FITC antibody (DakoCytomation Cat No. F0313, Lot No. 00015066) and propidium iodide. Samples were then analysed by Fluorescent Activated Cell Sorting (FACS). The measured fluorescence was directly proportional to the incorporated BrdU.
FIG. 6 is a graphic representation of the results of the neurotensin proliferation assay. The columns in the graph represent the mean percentage of BrdU incorporation into PANC-1 cells as a measure for cell proliferation. The two left-hand columns represent the controls of DMSO (basal level of non-stimulated cell proliferation) and DMSO plus 50 nM neurotensin (stimulated cell proliferation). […]

[2] = target: T1, PKD1 Ser916 phosphorylation in PANC-1 cells (Homo sapiens, UniProt Q15139); experiment: Western Blot 916 (Phospho-Ser916 PKD1) Assay in PDBu-stimulated PANC-1 cells; format: cell-based; settings: 2-30 μM compound for 1 hour, then 200 nM PDBu 10 minutes, densitometry of western blot, read-out: IC50 for inhibition of PDBu-stimulated PKD1 Ser916 phosphorylation
T1 construct: endogenous in cells; host or cells: PANC-1 (ATCC CRL-1469)
T1 sequence (Q15139 1-912): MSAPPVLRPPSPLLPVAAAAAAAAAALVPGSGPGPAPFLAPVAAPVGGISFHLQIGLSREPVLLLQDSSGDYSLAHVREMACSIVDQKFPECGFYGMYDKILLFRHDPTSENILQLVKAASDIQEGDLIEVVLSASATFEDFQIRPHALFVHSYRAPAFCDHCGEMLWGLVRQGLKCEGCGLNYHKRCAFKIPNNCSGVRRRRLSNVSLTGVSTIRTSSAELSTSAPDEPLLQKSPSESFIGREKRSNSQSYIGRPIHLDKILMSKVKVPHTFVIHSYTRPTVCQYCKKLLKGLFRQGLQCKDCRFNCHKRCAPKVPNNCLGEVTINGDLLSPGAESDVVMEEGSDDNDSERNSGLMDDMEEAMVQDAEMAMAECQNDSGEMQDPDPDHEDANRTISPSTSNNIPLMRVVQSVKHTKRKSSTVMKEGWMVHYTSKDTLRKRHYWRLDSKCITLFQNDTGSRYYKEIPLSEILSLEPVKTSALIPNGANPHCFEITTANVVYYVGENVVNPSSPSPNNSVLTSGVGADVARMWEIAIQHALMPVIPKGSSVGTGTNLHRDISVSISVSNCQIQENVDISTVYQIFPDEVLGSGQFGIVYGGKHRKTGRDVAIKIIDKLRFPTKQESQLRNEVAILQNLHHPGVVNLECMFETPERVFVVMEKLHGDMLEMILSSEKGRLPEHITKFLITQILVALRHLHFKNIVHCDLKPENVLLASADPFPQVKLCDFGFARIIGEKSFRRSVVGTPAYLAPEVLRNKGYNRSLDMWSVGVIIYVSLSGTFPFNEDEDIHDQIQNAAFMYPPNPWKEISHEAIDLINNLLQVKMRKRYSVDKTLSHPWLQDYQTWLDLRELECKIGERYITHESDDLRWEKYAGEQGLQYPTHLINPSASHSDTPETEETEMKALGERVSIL
Experimental: Western Blot 916 (Phospho-Ser916 PKD1) Assay
PANC-1 (ATCC CRL-1469) cells were seeded in 6 well plates. After overnight serum starvation of cells, cells were washed twice in 1 mL serum-free media per well, then treatments were added in serum-free media.
Cells were treated with 2 μM, 5 μM, 10 μM, or 30 μM of an amino-ethyl-amino-aryl (AEAA) compound or with 3 μM GF1 (2-[1-(3-Dimethylaminopropyl)-1H-indol-3-yl]-3-(1H-indol-3-yl)-maleimide, a PKC inhibitor), for comparison purposes, for 1 hour. Then, 200 nM PDBu (phorbol, 12,13-dibutyrate) was added to the wells for 10 minutes. Two wells were used per treatment.
Cells were then scraped into lysis buffer (40 μL per well), samples were homogenised, and protein concentration determined. […]
FIG. 4 is a photographic depiction of the western blot analysis of cell lysates of PANC-1 cells which were treated with increasing amounts (2, 5, 10, 30 μM) of an amino-ethyl-amino-aryl (AEAA) compound (XX-032). Cell lysates were analysed using an anti-PKD1 Antibody (middle panel), anti-phospho-PKD1 (Ser916) Antibody (top panel) and anti-tubulin antibody (lower panel).
The shown columns represent the percentage phosphorylation as measured by densitometry of phospho-PKD1 (Ser916) levels. The results were normalised to the measured PKD1 levels and expressed as a percentage of the level of phosphorylation in the PDBu-stimulated control.

PANC-1 cells [3] = experiment: MTT Assay (cell viability); format: cell-based, human; settings: 5 μM, 48 hours
Experimental: The MTT (3-[4,5-dimethylthiazol-2-yl]-2,5-diphenyltetrazolium bromide) assay can be used to assess the effect of compounds on cell viability and proliferation and to determine whether a compound is cytotoxic. In living cells, the tetrazolium salt (MTT) is reduced to a coloured formazan product (1-[4,5-dimethylthiazol-2-yl]3,5-diphenylformazan), which can be quantified. The reduction of MTT is attributed to the mitochondrial function of cells.
PANC-1 cells were seeded into 96 well plates (1×10^4 cells/well in E4+10% FCS) and placed in an incubator at 37° C., 5% CO2 overnight. Cells were serum starved (E4+0.5% FCS) for 16 hours and then treated with an amino-ethyl-amino-aryl (AEAA) compound (XX-032) in full media for 1 hour prior to treatment with Neurotensin (50 nM) for a further 23 hours or 47 hours (in E4+0.5% FCS; total exposure to test compound was 24 hours or 48 hours; 37° C. 5% CO2). At the appropriate timepoint plates were removed from the incubator and the media was aspirated off. 50 μL per well of 2 mg/mL MTT solution was added and the plates were placed back into the incubator for 2.5 to 4 hours. After incubation, the plates were removed from the incubator and the MTT solution was completely aspirated off the cells. […] The plates were read in a 96 well plate reader at 562 nm (Lab Systems, Ascent Multiscan).

PANC-1 cells [4] = experiment: Apoptosis Assay (Caspase-Glo caspase 3/7 activity); format: cell-based, human; settings: 5 μM, 48 hours
Experimental: PANC-1 cells were seeded into 96 well plates (1×10^4 cells/well in E4+10% FCS) and placed in an incubator at 37° C., 5% CO2 overnight. Cells were serum starved (E4+0.5% FCS) for 16 hours and then treated with an amino-ethyl-amino-aryl (AEAA) compound in full media for 1 hour prior to treatment with Neurotensin (NT; 50 nM) for a further 23 hours or 47 hours (in E4+0.5% FCS; total exposure to test compound was 24 hours or 48 hours). Cells were then assayed for Caspase3/7 activity (Caspase-Glo; Promega) according to the manufacturer's instructions.
The Caspase-Glo assay is a homogenous luminescent assay that measures caspase 3 and 7 activities. […] When added to the cell samples, these reagents result in cell lysis, followed by caspase cleavage of the substrate and generation of a luminescent signal produced by luciferase, whereby the luminescence is proportional to the amount of caspase activity present. […]
The depicted columns show the change in viability or induction of apotosis in the presence of an amino-ethyl-amino-aryl (AEAA) compound (XX-032). Cell viability was measured by the MTT assay at two different time points (24 and 48 hours) and induction of apoptosis was measured by the caspase assay at two different time points (24 and 48 hours). The data are expressed as a percentage of the level in the corresponding control.

[5] = target: T2, Murine PKD1 kinase domain (Mus musculus, UniProt Q62101, R683W); experiment: PKD1 (Murine Kinase Domain) Enzyme Activity Assay (IMAP fluorescence polarisation); format: biochemical; settings: 10 μM ATP, 10 point dose-response
T2 construct: hexahistidine (His6, pFastBac HTb leader) (N); made in house; host or cells: Sf9 insect cells, baculovirus (Bac-to-Bac HT)
T2 sequence (Q62101 with tags, fused parts or gaps R683W): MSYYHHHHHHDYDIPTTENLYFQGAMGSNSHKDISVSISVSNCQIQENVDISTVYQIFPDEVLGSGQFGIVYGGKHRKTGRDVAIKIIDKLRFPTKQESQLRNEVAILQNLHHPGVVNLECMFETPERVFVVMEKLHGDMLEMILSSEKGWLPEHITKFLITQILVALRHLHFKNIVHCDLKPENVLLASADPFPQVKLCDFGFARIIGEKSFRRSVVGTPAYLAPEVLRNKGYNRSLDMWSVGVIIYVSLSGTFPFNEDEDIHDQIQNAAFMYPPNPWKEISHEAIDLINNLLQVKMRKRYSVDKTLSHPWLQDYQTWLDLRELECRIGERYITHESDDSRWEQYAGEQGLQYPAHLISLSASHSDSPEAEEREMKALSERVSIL
Source text: The DNA sequence corresponding to murine PKD1 (see FIG. 1) was inserted into pFastBAc Htb (Invitrogen, USA) at BamH1 and EcoR1 sites using standard molecular biology techniques.
The PKD1 described above was expressed as a hexahistidine tagged protein construct using a commercially available baculoviral expression system that induces protein production in insect cell culture (Bac-to-Bac® HT Baculovirus Expression System, Invitrogen). Protein was typically expressed by inoculating 1 L of sf9 cells with a genetically modified baculovirus containing the gene for the kinase domain of PKD1. Sf9 cells were obtained from ICR Ltd.
Purification of PKD1 was achieved by standard chromatographic procedures. Capture from crude centrifuged lysed cell supernatant was achieved using metal affinity chromatography (GE Healthcare Life Sciences, HiTrap Chelating chromatography column), and fractions showing PKD1 (as assessed by gel electrophoresis and western blot) were further purified by a single purification step. This was a performed using a mono Q anion exchange chromatography system (GE Healthcare Life Sciences, HiTrap HP Q column). […] This protocol describes the method for screening compounds as inhibitors of Protein Kinase D activity in a 384 well microplate format fluorescence polarisation IMAP assay performed using the Biomek FX. […]

| Structure (SMILES) | Neurotensin-stimulated PANC-1 proliferation (BrdU incorporation) (PANC-1 cells [1]) | pIC50 [2] | decrease in cell viability (MTT) (PANC-1 cells [3]) | increase in caspase 3/7 activity (PANC-1 cells [4]) | pIC50 [5] |
| --- | --- | --- | --- | --- | --- |
| CC[C@@H](N)CNc1nc(-c2cc(Cl)ccc2O)nc2ccccc12 [XX-032, 2-[4-((R)-2-Amino-butylamino)-quinazolin-2-yl]-4-chloro-phenol] | inhibited to basal levels | ~5.40 | 2 fold | 5 fold | – |
| NCCNc1nc(-c2cc(Cl)ccc2O)nc2ccccc12 [XX-097, 2-[4-(2-Amino-ethylamino)-quinazolin-2-yl]-4-chloro-phenol] | – | – | – | – | 7.80 |
